Data: US10138255B2, “Piperazine derivatives as HIV protease inhibitors” (Merck Sharp & Dohme Corp., priority 2014, dated 2018)

Each compound was assayed on HIV-1 (H9IIIB strain) (assay: Cell-Based HIV Infection Assay Using a Reporter (MT4-GFP cells)). Settings: Human immunodeficiency virus 1, inflection point (IP) of viral growth inhibition; MT4-GFP cells infected with HIV-1 H9IIIB; 50% normal human serum; mean of at least two independent experiments; read-out: Cell Based IP (50% NHS).
In short: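 Inflection point from a 4-parameter curve of % viral growth inhibition, normalised to DMSO and triple-drug controls, using the 48 h/24 h ratio of GFP-positive cells (R0). MT4-GFP cells pre-infected 24 h with HIV-1 H9IIIB at low MOI; compounds tested in 50% normal human serum, 0.4% DMSO; mean of ≥2 experiments.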

Row | SMILES | EC50 [nM]
1 | CC(C)Oc1ncc([C@H](c2ccc(Cl)cc2)[C@H](N)C(=O)Nc2cccc(F)c2CC[C@H]2CN[C@@H]3CCCS(=O)(=O)N2C3)cn1 [Example 247, (βS)-4-chloro-N-(2-{2-[(6R,9S)-2,2-dioxido-2-thia-1,7-diazabicyclo[4.3.1]dec-9-yl]ethyl}-3-fluorophenyl)-β-[2-(1-methylethoxy)pyrimidin-5-yl]-L-phenylalaninamide] | 7.2
2 | CC(C)Oc1ccc(C(c2ccc(Cl)cc2)[C@H](N)C(=O)Nc2cncc(F)c2CC[C@H]2CN[C@@H]3CCCS(=O)(=O)N2C3)cn1 (stereo in doubt) [Example 240, (2S,3R)-2-amino-3-(4-chlorophenyl)-N-(4-(2-((6R,9S)-2,2-dioxido-2-thia-1,7-diazabicyclo[4.3.1]decan-9-yl)ethyl)-5-fluoropyridin-3-yl)-3-(6-isopropoxypyridin-3-yl)propanamide] | 8.4
3 | COC(=O)N[C@H](C(=O)Nc1cccc(F)c1CCC1CNC2CCCS(=O)(=O)N1C2)[C@H](c1ccc(F)cc1)C1CCC(F)(F)CC1 (stereo partly drawn) [Example 62, methyl [(1S,2S)-2-(4,4-difluorocyclohexyl)-1-({2-[2-(2,2-dioxido-2-thia-1,7-diazabicyclo[4.3.1]dec-9-yl)ethyl]-3-fluorophenyl}carbamoyl)-2-(4-fluorophenyl)ethyl]carbamate] | 190
4 | CC1(C)CC([C@H](c2ccc(Cl)cc2)[C@H](NCCO)C(=O)N[C@H]2CCC[C@@H]2CC[C@H]2CN[C@@H]3CCCS(=O)(=O)N2C3)CCO1 (stereo partly drawn) [Example 231, (βR)-4-chloro-β-(2,2-dimethyltetrahydro-2H-pyran-4-yl)-N-[(1S,2R)-2-{2-[(6R,9S)-2,2-dioxido-2-thia-1,7-diazabicyclo[4.3.1]dec-9-yl]ethyl}cyclopentyl]-Nα-(2-hydroxyethyl)-L-phenylalaninamide] | 310
5 | COC(=O)N[C@H](C(=O)Nc1cccc(F)c1CCC1CNC2CCCS(=O)(=O)N1C2)[C@H](c1cncc(Cl)c1)c1ccc(Cl)c(F)c1 (stereo partly drawn) [Example 73, methyl [(1S,2S)-2-(4-chloro-3-fluorophenyl)-2-(5-chloropyridin-3-yl)-1-({2-[2-(2,2-dioxido-2-thia-1,7-diazabicyclo[4.3.1]dec-9-yl)ethyl]-3-fluorophenyl}carbamoyl)ethyl]carbamate] | 18
6 | COC(=O)CCCN[C@H](C(=O)N[C@H]1CCC[C@@H]1CC[C@H]1CN[C@@H]2CCCS(=O)(=O)N1C2)[C@@H](c1ccc(Cl)cc1)C1CCOC(C)(C)C1 (stereo partly drawn) [Example 229, methyl 4-{[(1S,2R)-2-(4-chlorophenyl)-2-(2,2-dimethyltetrahydro-2H-pyran-4-yl)-1-{[(1S,2R)-2-{2-[(6R,9S)-2,2-dioxido-2-thia-1,7-diazabicyclo[4.3.1]dec-9-yl]ethyl}cyclopentyl]carbamoyl}ethyl]amino} butanoate] | 210
7 | N[C@H](C(=O)Nc1cccc(F)c1CC[C@H]1CN[C@@H]2CCCS(=O)(=O)N1C2)[C@@H](c1ccc(F)cc1)C1CCCOC1 (stereo partly drawn) [Example 214, (βR)-N-(2-{2-[(6R,9S)-2,2-dioxido-2-thia-1,7-diazabicyclo[4.3.1]dec-9-yl]ethyl}-3-fluorophenyl)-4-fluoro-β-(tetrahydro-2H-pyran-3-yl)-L-phenylalaninamide] | 18
8 | COC(=O)N[C@H](C(=O)Nc1cccc(F)c1CCC1CNC2CCCS(=O)(=O)N1C2)[C@@H](c1ccc(Cl)cc1)c1ccc(C(F)(F)F)nc1 (stereo partly drawn) [Example 21, Methyl {(1S,2S)-2-(4-chlorophenyl)-1-({2-[2-(2,2-dioxido-2-thia-1,7-diazabicyclo[4.3.1]dec-9-yl)ethyl]-3-fluorophenyl}carbamoyl)-2-[6-(trifluoromethyl)pyridin-3-yl]ethyl}carbamate] | 5
9 | CC1(C)C[C@@H]([C@H](c2ccc(Cl)cc2)[C@H](N)C(=O)Nc2c(F)ccc(F)c2CC[C@H]2CN[C@@H]3CCCS(=O)(=O)N2C3)CCO1 [Example 194, (βR)-4-chloro-β-[(4S)-2,2-dimethyltetrahydro-2H-pyran-4-yl]-N-(2-{2-[(6R,9S)-2,2-dioxido-2-thia-1,7-diazabicyclo[4.3.1]dec-9-yl]ethyl}-3,6-difluorophenyl)-L-phenylalaninamide] | 19
10 | N[C@H](C(=O)Nc1cccc(F)c1CCC1CNC2CCCS(=O)(=O)N1C2)[C@@H](c1ccc(Cl)cc1)C1CC(F)(F)C1 (stereo partly drawn) [Example 48, (βR)-4-chloro-β-(3,3-difluorocyclobutyl)-N-{2-[2-(2,2-dioxido-2-thia-1,7-diazabicyclo[4.3.1]dec-9-yl)ethyl]-3-fluorophenyl}-L-phenylalaninamide] | 33
11 | N[C@H](C(=O)Nc1cncc(F)c1CC[C@H]1CN[C@@H]2CCCS(=O)(=O)N1C2)[C@H](c1cncc(F)c1)c1ccc(Cl)c(F)c1 [Example 234, (βS)-4-chloro-N-(4-{2-[(6R,9S)-2,2-dioxido-2-thia-1,7-diazabicyclo[4.3.1]dec-9-yl]ethyl}-5-fluoropyridin-3-yl)-3-fluoro-β-(5-fluoropyridin-3-yl)-L-phenylalaninamide] | 50
12 | CS(=O)(=O)N1CCC(c2ccc(Cl)cc2)([C@H](N)C(=O)Nc2cccc(F)c2CC[C@H]2CN[C@@H]3CCCS(=O)(=O)N2C3)CC1 [Example 176, (2S)-2-amino-2-[4-(4-chlorophenyl)-1-(methylsulfonyl)piperidin-4-yl]-N-(2-{2-[(6R,9S)-2,2-dioxido-2-thia-1,7-diazabicyclo[4.3.1]dec-9-yl]ethyl}-3-fluorophenyl)ethanamide] | 150
13 | C[C@@H]1CC([C@H](c2ccc(F)cc2)[C@H](N)C(=O)Nc2ccc(F)c(F)c2CC[C@H]2CN[C@@H]3CCCS(=O)(=O)N2C3)C[C@H](C)O1 (stereo partly drawn) [Example 166, (βR)-β-[(2R,6S)-2,6-dimethyltetrahydro-2H-pyran-4-yl]-N-(2-{2-[(6R,9S)-2,2-dioxido-2-thia-1,7-diazabicyclo[4.3.1]dec-9-yl]ethyl}-3,4-difluorophenyl)-4-fluoro-L-phenylalaninamide] | 25
14 | N[C@H](C(=O)Nc1cccc(F)c1CC[C@H]1CN[C@@H]2CCCS(=O)(=O)N1CC2)[C@@H](c1ccc(F)cc1)c1cc(F)cc(F)c1 [Example 276, (2S,3S)-2-Amino-3-(3,5-difluorophenyl)-N-(2-(2-((6R,9S)-2,2-dioxido-2-thia-1,7-diazabicyclo[4.3.2]undecan-9-yl)ethyl)-3-fluorophenyl)-3-(4-fluorophenyl)propanamide] | 6.1
15 | CCOC(=O)N1CCC(c2ccc(Cl)cc2)([C@H](NC(=O)OC)C(=O)Nc2cccc(F)c2CC[C@H]2CN[C@@H]3CCCS(=O)(=O)N2C3)CC1 [Example 255, ethyl 4-(4-chlorophenyl)-4-{(1S)-2-[(2-{2-[(6R,9S)-2,2-dioxido-2-thia-1,7-diazabicyclo[4.3.1]dec-9-yl]ethyl}-3-fluorophenyl)amino]-1-[(methoxycarbonyl)amino]-2-oxoethyl}piperidine-1-carboxylate] | 18
16 | COC(=O)N[C@H](C(=O)Nc1cccc(F)c1CCC1CNC2CCCS(=O)(=O)N1C2)[C@H](c1cncc(F)c1)c1ccc(Cl)c(F)c1 (stereo partly drawn) [Example 46, methyl [(1S,2S)-2-(4-chloro-3-fluorophenyl)-1-({2-[2-(2,2-dioxido-2-thia-1,7-diazabicyclo[4.3.1]dec-9-yl)ethyl]-3-fluorophenyl}carbamoyl)-2-(5-fluoropyridin-3-yl)ethyl]carbamate] | 9.1
17 | CO[C@H]1CC[C@](c2ccc(Cl)cc2)([C@H](N)C(=O)Nc2cccc(F)c2CC[C@H]2CN[C@@H]3CCCS(=O)(=O)N2C3)CC1 [Example 171, (2S)-2-amino-2-[trans-1-(4-chlorophenyl)-4-methoxycyclohexyl]-N-(2-{2-[(6R,9S)-2,2-dioxido-2-thia-1,7-diazabicyclo[4.3.1]dec-9-yl]ethyl}-3-fluorophenyl)ethanamide] | 34
18 | CC1(C)CC([C@H](c2ccc(Cl)cc2)[C@H](NC(=O)C(C)(C)N)C(=O)N[C@H]2CCC[C@@H]2CC[C@H]2CN[C@@H]3CCCS(=O)(=O)N2C3)CCO1 (stereo partly drawn) [Example 237, 2-methylalanyl-(βR)-4-chloro-β-(2,2-dimethyltetrahydro-2H-pyran-4-yl)-N-[(1S,2R)-2-{2-[(6R,9S)-2,2-dioxido-2-thia-1,7-diazabicyclo[4.3.1]dec-9-yl]ethyl}cyclopentyl]-L-phenylalaninamide] | 150
19 | COC(=O)N[C@H](C(=O)Nc1cc(F)ccc1CC[C@H]1CN[C@@H]2CCCS(=O)(=O)N1C2)[C@@H](c1ccc(F)cc1)C1C[C@@H](C)O[C@@H](C)C1 (stereo partly drawn) [Example 30, Methyl [(1S,2R)-2-[(2R,6S)-2,6-dimethyltetrahydro-2H-pyran-4-yl]-1-[(2-{2-[(6R,9S)-2,2-dioxido-2-thia-1,7-diazabicyclo[4.3.1]dec-9-yl]ethyl}-5-fluorophenyl)carbamoyl]-2-(4-fluorophenyl)ethyl]carbamate] | 10
20 | CC1(C)CC([C@H](c2ccc(F)cc2)[C@H](N)C(=O)N[C@H]2CCC[C@@H]2CC[C@H]2CN[C@@H]3CCCS(=O)(=O)N2C3)CCO1 (stereo partly drawn) [Example 54, (βR)-β-(2,2-dimethyltetrahydro-2H-pyran-4-yl)-N-[(1S,2R)-2-{2-[(6R,9S)-2,2-dioxido-2-thia-1,7-diazabicyclo[4.3.1]dec-9-yl]ethyl}cyclopentyl]-4-fluoro-L-phenylalaninamide] | 180
21 | COC(=O)N[C@H](C(=O)Nc1cccc(F)c1CCC1CNC2CCCS(=O)(=O)N1C2)[C@@H](c1ccc(Cl)cc1)c1ccnc(OC(C)C)c1 (stereo partly drawn) [Example 122, methyl {(1S,2S)-2-(4-chlorophenyl)-1-({2-[2-(2,2-dioxido-2-thia-1,7-diazabicyclo[4.3.1]dec-9-yl)ethyl]-3-fluorophenyl}carbamoyl)-2-[2-(1-methylethoxy)pyridin-4-yl]ethyl}carbamate] | 6.7
